Results on one molecule are retold here after publication PMC3974779, “Pterostilbene-Isothiocyanate Conjugate Suppresses Growth of Prostate Cancer Cells Irrespective of Androgen Receptor Status” (PLoS ONE, 2014).

Format in all cases: cell-based, human
The subject of one assay is LNCaP cells. The assay can be described thus: Annexin-V/PI apoptosis assay by flow cytometry. Conditions: 24 h. As for the experimental part:
(§1) Cell cycle distribution and Annexin V/Propidium iodide (PI) positive cells were analyzed using flow cytometry. In brief, first the cells were seeded and treated with 0, 10, 20 and 40 μM conjugate in complete medium for 24 h. This was followed by trypsinizing and fixing in 70% ethanol, and finally washing with PBS. Subsequently, the cells were treated with RNase A (50 μg/ml), stained with PI (50 μg/ml) and incubated in the dark for 30 min at room temperature and analyzed by flow cytometry for cell cycle distribution. For apoptosis, the conjugate treated cells were stained with Alexa-Fluor 488-conjugated Annexin-V using the Vybrant-Apoptosis Assay Kit from Invitrogen (USA) as per the manufacturer’s protocol. The stained cells were then analyzed by fluorescence activated cell sorting (FACS Calibur, BD Biosciences, San Jose, CA, USA) and the data were standardized using Cell Quest 3.3 software.
A general note: Flow cytometry measures light scatter and fluorescence of single cells or particles in a stream.

The subject of the next assay is PC-3 cells. The experiment in a line: Annexin-V/PI apoptosis assay by flow cytometry. Conditions: 24 h. As for the experimental part:
as §1

A further assay has as its system p-Akt in LNCaP cells. The experiment in a line: Immunoblot of Akt phosphorylation. Conditions: below 20 μM, 24 h. How it is done: (§2) The whole-cell lysates were prepared as described previously in immunoprecipitation (IP) buffer containing 50 mM Tris-HCl (pH 8.0), 150 mM NaCl, 5 mM EDTA, and 1% Triton X-100. Protein aliquots of 500 μg were then incubated overnight at 4°C using 2 μg of antibody directed against AR. The Protein A-Cl Agarose beads were then added and further incubated for 6 h at 4°C. The immunoprecipitates were washed four times with the IP buffer and the immunocomplexes were recovered by boiling in SDS sample buffer. Finally the western blot was carried out using anti-AR, anti-SRC-1 and anti-GRIP-1 antibodies (Santa Cruz, CA, USA). For western blot analysis, the cell lysates were prepared after harvesting them in lysis buffer. About 40 μg of total protein was electrophoresed by 12% SDS-PAGE, and the western blotting was carried out using standard protocol. In brief, the analyzed proteins were transferred to nylon membranes. The blots were then blocked with TBST buffer (20 mM Tris-Cl, pH 7.5, 150 mM sodium chloride, 0.05% Tween-20) containing 5% skim milk powder. They were then washed with TBST buffer and incubated overnight at 4°C with the same buffer containing appropriate amounts of primary antibodies: caspase-3, Bax, Bcl-2, Akt, p-Akt, ERK, p-ERK, AR, SRC-1, GRIP-1 (1∶500) and β-actin (1∶1000). The blots were then washed and incubated with anti-rabbit secondary antibody (1∶20,000) conjugated with horseradish peroxidase (HRP). Color development was performed in the dark by using an ECL kit (Amersham, GE Healthcare, Buckinghamshire, UK). The developed blots were subjected to densitometric analysis by ImageJ 1.43 software (NIH, USA) using β-actin as internal control.
(§3) The siRNAs against human Akt and ERK and control siRNA were purchased commercially from Santa Cruz Biotechnology (USA). The LNCaP and PC-3 PCa cells were transfected with siRNAs (at a final concentration of 100 nM) using polyfect transfection reagent (Qiagen, CA, USA) according to manufacturer’s instructions. After 24 h of transfection, the cells were washed properly and replaced with fresh medium. The cells were then treated with 20 μM conjugate for 24 h, and finally protein lysates were prepared on completion of treatment. The levels of p-Akt, p-ERK and cleaved caspase-3 expressions were detected by Western blot analysis.

A further assay concerns p-Akt in PC-3 cells. The experiment in a line: Immunoblot of Akt phosphorylation. To be noted: 24 h. As for the experimental part: as §2, §3
The subject of the next assay is p-ERK in PC-3 cells. The experiment in a line: Immunoblot of ERK phosphorylation. Conditions: 24 h. How it is done:
as §2, §3
In general terms: In western blotting, separated proteins are transferred to a membrane and probed.

The next assay deals with p-ERK in LNCaP cells. The assay can be described thus: Immunoblot of ERK phosphorylation. Conditions: highest dose, 24 h. How it is done: as §2, with “The blots were then washed and incubated with anti-rabbit secondary antibody (1∶20,000) conjugated with horseradish peroxidase (HRP). Color development was performed in the dark by using an ECL kit (Amersham, GE Healthcare, Buckinghamshire, UK). The developed blots were subjected to densitometric analysis by ImageJ 1.43 software (NIH, USA) using β-actin as internal control.” left out

The subject of assay [1] is cleaved caspase-3 in PC-3 cells. The assay can be described thus: Akt/ERK siRNA silencing, cleaved caspase-3 immunoblot. How it is done:
as §3
(§4) Figure 5 Differential role of PI3K/Akt and MAPK/ERK pathways in conjugate induced apoptosis of prostate cancer cells. Effects of siRNA mediated silencing of Akt and ERK on conjugate-induced apoptosis of (A) PC-3 and (B) LNCaP cells. LNCaP and PC-3 PCa cells were transfected with siRNAs (at a final concentration of 100 nM) using polyfect transfection reagent. After 24 h of transfection the cells were treated with 20 μM conjugate and allowed to grow for another 24 h. The cell lysates were prepared and the level of p-Akt, p-ERK and cleaved caspase-3 proteins were detected by immunoblot analysis. The histogram on the right panel of each figure represents densitometric analyses of the image data and expressed as percent of control where the results are mean ± SEM of three independent experiments. *and # represents statistically significant difference with respect to control and 20 μM conjugate treated groups respectively at p<0.05.

Assay [2] concerns cleaved caspase-3 in LNCaP cells. The experiment in a line: Akt/ERK silencing or inhibition, cleaved caspase-3 immunoblot. As for the experimental part:
as §3, §4
Supplementary file pone.0093335.s001.tif: Figure S1 (A) Effects of the Akt Kinase inhibitor (A6730) and/or the ERK inhibitor (PD98059) on the conjugate-induced apoptosis of PC-3 and (B) LNCaP cells. The cells were pre-treated with A6730 (5 μM) and/or PD98059 (20 μM) for 1 h before the addition of 20 μM conjugate for additional 24 h (total inhibitor exposure time was 25 h). The collected cell lysates were then immunoblotted using respective antibodies. The histogram on the right panel of each figure represents densitometric analyses of the image data and expressed as percent of control where the results are mean ± SEM of three independent experiments. *and # represents statistically significant difference with respect to control and 20 μΜ conjugate treated groups respectively at p<0.05. (TIF) Click here for additional data file.

Another assay has as its system AR in LNCaP cells. The assay can be described thus: Immunofluorescence staining of endogenous AR. To be noted: varying doses of conjugate, 20 μM RESV, DHT. As for the experimental part:
The cells were then incubated with AR rabbit polyclonal antibody diluted 1∶200 in blocking buffer for 1 h at RT. Finally, the cells were washed with PBS and incubated with FITC-labelled anti-rabbit secondary antibody diluted 1∶1000 in blocking buffer for 30 min at room temperature. The cells were then observed under a fluorescence microscope (Zeiss, Axiovert 25, Germany).

The structures appear in SMILES notation.

Turning to `COc1cc(/C=C/c2ccc(O)c(/C=N/NC(N)=S)c2)cc(OC)c1` [conjugate, Pterostilbene-isothiocyanate conjugate], the “early apoptotic cells (Annexin V positive only, lower right quadrant)” value with LNCaP cells (20 μM) is 52%; in the assay on PC-3 cells (PC-3, 20 μM) it was “about 44%”; in the assay with PC-3 cells (PC-3, 40 μM), around 68%. Moreover, the “late apoptotic cells (Annexin V and PI positive, upper right quadrant)” value turned out to be 8% in the assay with LNCaP cells (20 μM); 18.5% in the assay on LNCaP cells (40 μM); 12% in the assay with PC-3 cells (PC-3, 20 μM); 16% in the assay on PC-3 cells (PC-3, 40 μM). The “effect on level of p-Akt” value with p-Akt in LNCaP cells was “negligible effects”. The “decrease in level of p-Akt” value in the assay with p-Akt in PC-3 cells (PC-3, 20 μM) is listed as around 2.2 folds; in the assay with p-Akt in PC-3 cells (PC-3, 40 μM), around 4.4 folds. Besides, the “reduction in level of p-ERK” value with p-ERK in PC-3 cells (PC-3, 20 μM) amounted to 1.3 folds; with p-ERK in PC-3 cells (PC-3, 40 μM), 1.7 folds. Moreover, the “inhibition of p-ERK” value in the assay on p-ERK in LNCaP cells is given as “almost completely inhibited”. Also, the “increase in cleaved caspase-3 protein expression vs control” value in assay [1] (PC-3, 20 μM conjugate alone, 24 h) stood at 3.7 folds; in assay [1] (PC-3, 20 μM conjugate in presence of Akt siRNA) it was 4.8 folds. In addition, the “increase in expression of caspase-3 vs control” value in assay [1] (PC-3, 20 μM conjugate in presence of ERK siRNA) is reported as 3.9 folds. Moreover, the “increase in cleaved caspase-3 protein level” value in [2] (Akt-silenced LNCaP cells, 20 μM conjugate) is around 4.5 folds. Also, the “increase in cleaved caspase-3 level” value in [2] (ERK-silenced LNCaP cells, 20 μM conjugate) stood at 6.5 folds. Also, the “cleaved caspase-3 in ERK-silenced cells plus conjugate relative to conjugate alone” value in assay [2] (LNCaP, 20 μM conjugate) was “about 1.4 times”. Further, the “level of cleaved caspase-3 vs conjugate alone” value in assay [2] (LNCaP, A6730 (5 μM) combined with 20 μM conjugate) is listed as “did not show any significant increase”; in assay [2] (LNCaP, co-treatment with PD98059 (20 μM) and 20 μM conjugate), “significantly increased”. For the same molecule, the AR immunofluorescence intensity entry in the assay on AR in LNCaP cells is given as “almost complete abolition of fluorescent intensity”.
